For assay [1], the target named is Serine/threonine-protein kinase 26 (Homo sapiens) (UniProt Q9P289). As to the kind of experiment: Inhibition of MST4 at 10 uM assessed as residual activity by [33P]ATP radioactive filter binding assay relative to control.
Another assay relates to PC-9. In words: Cytotoxicity against human PC9 cells expressing 746-750 sequence deleted EGFR assessed as cell viability at 0.001 to 10 uM after 96 hrs by cell titer-glo assay. Type of assay: functional, cell-based. A general note: In ATP-based viability assays light output follows the ATP content of the culture.
Assay [2] concerns 3-phosphoinositide-dependent protein kinase 1. In words: Inhibition of PDK1 at 10 uM assessed as residual activity by [33P]ATP radioactive filter binding assay relative to control.
Assay [3] concerns the target Serine/threonine-protein kinase PAK 2 (Homo sapiens) (UniProt Q13177). In words: Inhibition of PAK2 at 10 uM assessed as residual activity by [33P]ATP radioactive filter binding assay relative to control.
Assay [4] concerns the target Epidermal growth factor receptor (Homo sapiens, UniProt P00533, L858R/T790M). In words: Inhibition of EGFR Leu858Arg and Thr790Met mutant by HTRF assay. Type of assay: protein assay. (In general: Time-resolved FRET reads energy transfer from a long-lived donor to a nearby acceptor.)
For assay [5], the target named is Ribosomal protein S6 kinase beta-1 (Homo sapiens) (UniProt P23443). In words: Inhibition of S6K1 at 10 uM assessed as residual activity by [33P]ATP radioactive filter binding assay relative to control.
Assay [6] has as its target Mitogen-activated protein kinase 1 (Homo sapiens) (UniProt P28482). As to the kind of experiment: Inhibition of ERK2 at 10 uM assessed as residual activity by [33P]ATP radioactive filter binding assay relative to control.
Assay [7] has as its system Lymphokine-activated killer T-cell-originated protein kinase. In words: Inhibition of PBK1 at 10 uM assessed as residual activity by [33P]ATP radioactive filter binding assay relative to control.

One may read the IC50 as the point on the concentration scale where inhibition reaches its midpoint. A higher IC50 goes with weaker potency in that assay.

Activity calls are given as the source filed them. No cut-off for these calls is given here.

Chain of Serine/threonine-protein kinase PAK 2 (Homo sapiens) (Q13177 whole entry): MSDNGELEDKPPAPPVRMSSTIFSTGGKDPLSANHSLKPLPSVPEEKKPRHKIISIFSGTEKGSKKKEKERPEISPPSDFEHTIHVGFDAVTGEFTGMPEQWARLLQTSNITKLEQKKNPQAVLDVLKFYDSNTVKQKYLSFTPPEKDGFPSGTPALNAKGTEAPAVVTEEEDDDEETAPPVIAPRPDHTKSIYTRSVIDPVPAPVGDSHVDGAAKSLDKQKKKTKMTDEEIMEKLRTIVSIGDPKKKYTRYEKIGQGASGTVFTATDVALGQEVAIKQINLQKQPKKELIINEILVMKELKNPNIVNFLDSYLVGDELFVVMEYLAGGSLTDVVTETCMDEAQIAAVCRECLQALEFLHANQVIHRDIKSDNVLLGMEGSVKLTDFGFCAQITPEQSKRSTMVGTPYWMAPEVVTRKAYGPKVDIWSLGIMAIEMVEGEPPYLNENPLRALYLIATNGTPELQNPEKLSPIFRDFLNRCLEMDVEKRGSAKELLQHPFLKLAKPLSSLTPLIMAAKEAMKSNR
Chain of Mitogen-activated protein kinase 1 (Homo sapiens) (P28482 whole entry): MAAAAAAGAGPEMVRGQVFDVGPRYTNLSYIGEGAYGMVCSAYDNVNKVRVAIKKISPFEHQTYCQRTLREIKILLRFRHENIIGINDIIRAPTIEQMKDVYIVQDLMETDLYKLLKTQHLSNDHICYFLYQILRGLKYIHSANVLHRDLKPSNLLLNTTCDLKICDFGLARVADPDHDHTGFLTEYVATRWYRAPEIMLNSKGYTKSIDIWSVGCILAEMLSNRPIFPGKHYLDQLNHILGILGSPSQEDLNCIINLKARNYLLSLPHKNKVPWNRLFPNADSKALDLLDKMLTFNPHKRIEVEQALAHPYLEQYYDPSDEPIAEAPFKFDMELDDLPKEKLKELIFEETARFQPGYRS
Chain of Epidermal growth factor receptor (P00533 25-1210 T790M/L858R limits assumed): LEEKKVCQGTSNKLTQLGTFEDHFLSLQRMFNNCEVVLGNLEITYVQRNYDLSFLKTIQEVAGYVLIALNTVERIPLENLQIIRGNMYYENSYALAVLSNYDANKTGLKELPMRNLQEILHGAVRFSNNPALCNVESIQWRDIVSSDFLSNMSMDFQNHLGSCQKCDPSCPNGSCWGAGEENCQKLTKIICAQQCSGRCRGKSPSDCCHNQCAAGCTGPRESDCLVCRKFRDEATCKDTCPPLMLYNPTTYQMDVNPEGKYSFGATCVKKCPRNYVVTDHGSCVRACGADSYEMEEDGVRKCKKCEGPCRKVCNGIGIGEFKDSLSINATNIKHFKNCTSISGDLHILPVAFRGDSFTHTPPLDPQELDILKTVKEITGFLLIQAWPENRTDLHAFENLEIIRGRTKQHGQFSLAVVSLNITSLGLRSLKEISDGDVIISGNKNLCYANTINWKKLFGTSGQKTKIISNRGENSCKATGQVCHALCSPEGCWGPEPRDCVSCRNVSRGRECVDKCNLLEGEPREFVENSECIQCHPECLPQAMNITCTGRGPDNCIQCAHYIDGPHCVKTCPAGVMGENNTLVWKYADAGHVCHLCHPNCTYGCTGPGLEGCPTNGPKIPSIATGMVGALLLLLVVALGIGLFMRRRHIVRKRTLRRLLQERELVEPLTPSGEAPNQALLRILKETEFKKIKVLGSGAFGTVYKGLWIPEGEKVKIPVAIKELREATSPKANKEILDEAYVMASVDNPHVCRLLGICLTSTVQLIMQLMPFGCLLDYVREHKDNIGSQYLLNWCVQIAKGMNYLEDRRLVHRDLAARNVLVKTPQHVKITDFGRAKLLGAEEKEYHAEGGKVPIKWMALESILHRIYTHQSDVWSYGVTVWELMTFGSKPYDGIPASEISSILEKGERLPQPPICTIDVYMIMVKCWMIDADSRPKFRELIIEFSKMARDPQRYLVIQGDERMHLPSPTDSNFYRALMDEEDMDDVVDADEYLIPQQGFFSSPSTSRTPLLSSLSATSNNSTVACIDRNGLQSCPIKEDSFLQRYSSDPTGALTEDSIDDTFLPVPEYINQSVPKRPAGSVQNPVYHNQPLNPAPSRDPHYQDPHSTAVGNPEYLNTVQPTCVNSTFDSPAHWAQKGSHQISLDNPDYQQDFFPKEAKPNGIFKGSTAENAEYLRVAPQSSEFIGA
Chain of Ribosomal protein S6 kinase beta-1 (Homo sapiens) (P23443 whole entry, looked up): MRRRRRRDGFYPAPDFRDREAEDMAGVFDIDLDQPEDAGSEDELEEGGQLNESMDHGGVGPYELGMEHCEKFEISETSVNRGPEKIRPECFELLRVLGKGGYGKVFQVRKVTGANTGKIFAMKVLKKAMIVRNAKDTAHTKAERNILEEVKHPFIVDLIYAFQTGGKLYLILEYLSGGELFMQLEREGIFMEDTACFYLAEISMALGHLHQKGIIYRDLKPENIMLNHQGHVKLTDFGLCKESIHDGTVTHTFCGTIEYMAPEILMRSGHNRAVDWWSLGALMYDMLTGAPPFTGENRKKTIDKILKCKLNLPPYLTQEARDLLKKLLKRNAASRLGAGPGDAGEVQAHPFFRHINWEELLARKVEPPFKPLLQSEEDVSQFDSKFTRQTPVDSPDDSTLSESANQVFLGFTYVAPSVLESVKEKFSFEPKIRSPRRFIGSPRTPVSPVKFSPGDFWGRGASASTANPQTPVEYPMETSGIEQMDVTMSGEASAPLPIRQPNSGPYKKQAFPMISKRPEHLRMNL
Chain of Serine/threonine-protein kinase 26 (Homo sapiens) (Q9P289 2-416 limits assumed): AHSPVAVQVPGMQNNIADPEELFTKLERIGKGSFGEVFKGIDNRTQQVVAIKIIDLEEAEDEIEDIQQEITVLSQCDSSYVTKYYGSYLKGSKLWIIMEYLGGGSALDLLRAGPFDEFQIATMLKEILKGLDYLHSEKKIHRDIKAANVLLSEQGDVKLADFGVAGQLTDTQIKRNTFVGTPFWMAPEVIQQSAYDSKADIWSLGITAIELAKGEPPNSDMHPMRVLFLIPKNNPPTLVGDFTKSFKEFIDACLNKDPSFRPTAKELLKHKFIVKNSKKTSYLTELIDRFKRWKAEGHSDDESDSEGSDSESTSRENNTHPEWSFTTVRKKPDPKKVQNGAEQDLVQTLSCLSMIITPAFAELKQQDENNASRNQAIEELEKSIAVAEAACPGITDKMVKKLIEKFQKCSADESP

As for `CN(C)CCCC(=O)Nc1ccc2nccc(Nc3cccc(Br)c3)c2c1`, the Activity in assay [1] stood at 80%; in assay [2] it was 78%; in assay [3] it was 79%; in assay [5], 87%; in assay [6], 88%; in assay [7], 84%. Further, in the assay on PC-9, the result was Active. The IC50 in assay [4] was 130 nM.
